Literature values as cited in US20150024505A1, “APPARATUS FOR EVALUATING CARBONATE SOLUBILITY” (SAUDI ARABIAN OIL COMPANY, priority 2013, published 2015).

Conditions: in water; 10,000 psig and 300° F. required to reach this level

For O=C=O [CO2], the “limit of CO2 solubility” value is listed as “about 150 scf/stb of water”.
